Data reported in patent US8012487B2, “Synthetic peptides and DNA sequences for treatment of multiple sclerosis” (priority 2001, dated 2011).
Where no end group is shown, it is not given here.

Key:
[1] = tested on: EAE induced with MOG 37-52; assay: EAE induced with MOG 37-52, treatment with MOG APLs; format: in vivo; conditions: C3H.SW mice; 400 μg in PBS i.v. on days 5, 7, 9 and 12 after encephalitogenic challenge; FIG. 8
lymph node cells = assay: Ex vivo response to MOG 37-52 by lymph node cells isolated from treated mice; format: cell-based; conditions: cells from APL-treated C3H.SW mice
[2] = tested on: EAE induced by Y-MSPb-reactive line T-cells; assay: EAE associated with multiple pathogenic autoreactivities induced by transfer of Y-MSPb-reactive line T-cells; format: in vivo, (C3H.SW×SJL/J)F1 mice; conditions: in PBS given daily i.p. from the day of T-cell transfer; FIG. 9B
Description: Y-MSPb, the purified protein product of the synthetic Y-MSPb gene, disclosed in WO 01-31037, designed to encode tandemly arranged disease-relevant epitopes clusters of the encephalitogenic proteins MBP, PLP, MOG, and MOBP, was tested for its immunomodulatory effect on EAE associated with multiple pathogenic autoreactivities, upon tolerogenic administration, in the same way as described for Y-MSPa in WO 01-31037.
Line T-cells were selected in vitro with Y-MSPb from lymph node cells (LNCs) of (C3H.SW×SJL/J)F1 mice immunized with Y-MSPb (containing encephalitogenic epitopes of MOG, MBP, PLP and MOBP) in CFA, and were analyzed after primary response (left panel) and after four cycles of selection (right panel) for their proliferative response to Y-MSPb, phMOG 34-56, phMOG 1-22, shMOG/E, PLP 139-151, shPLP/E, MBP 87-101 and shMBP/E (10 μ/ml). The proliferative response to purified protein derivative (PPD) (5 μ/ml) was analyzed as a measure of specificity. The line T cells are directed against each of the myelin autoantigens.

TCR = TCR signaling in MOG 37-52-reactive T-cell clones; format: cell-based, mice; conditions: peptide alone; not shown
Description: Possible mechanisms by which the relevant APLs may inhibit MOG 37-52-reactive T-cell clones in vitro were tested by analyzing their effect on TCR signaling, as well as on cytokine secretion by the clones.

[3] = tested on: H-2^b haplotype mice (C3H.SW, C57BL); assay: Encephalitogenicity of T-cell responses elicited by APLs; format: in vivo; conditions: H-2^b mice; not shown
Description: (§1) For EAE induced in H-2^b haplotype mice (C3H.SW, C57BL) by MOG 35-55 (SEQ ID NO: 234), we have defined residues 41 and 44 as crucial TCR contact residues for the interaction between the encephalitogenic nonameric core sequence MOG 40-48, found by molecular modelling studies to represent the preferred binding mode for MOG 35-55 to IA^b, and the TCR of H-2^b MOG-specific T-cells. APLs with non-conservative substitutions at either or both of these residues elicited T-cell responses which were not encephalitogenic (not shown). In vitro, these APLs inhibited the proliferation of T-cell clones to MOG 37-52, the minimal optimal stimulatory peptide. […] MOG35-55-specific T-cell line was raised from MOG35-55-immunized C3H.SW mice as described (Mendel et al., 1996). Cytokine assays were performed by ELISA according to PharMingen standard protocols.

[4] = tested on: APL-specific T-cell lines; assay: Cytokine profile of APL-specific T-cell lines (ELISA); format: cell-based, mice; conditions: pilot studies, not shown
Description: as §1

[5] = tested on: chronic EAE induced with whole PLP; conditions: SJL/J mice; tolerization; cited from earlier work
[6] = tested on: EAE induced with MBP, MOG or MBP/MOG combination; conditions: (PL/J×SJL/J) F1 mice, cited from earlier work

MOG 37-Q41-52: MOG 37-52 altered peptide ligand substituted at TCR contact residue 41 (VGWYQPPFSRVVHLYR; The peptide of SEQ ID NO231 in which the residue at position 5 was replaced by Gln.)
severity and incidence of EAE induced with the native MOG 37-52 [1]: marked decrease | response ex vivo to MOG 37-52 by lymph node cells isolated from treated mice (lymph node cells): markedly reduced response

MOG 37-52: native MOG peptide, the minimal optimal stimulatory peptide (VGWYRPPFSRVVHLYR; Synthetic peptide containing sequence 37-52 of MOG.)
EAE induced by Y-MSPb-reactive line T-cells: disease incidence or severity [2]: no significant effect

MOG 37-A44-52: APL of MOG 37-52 wherein F44 is substituted by A44 (VGWYRPPASRVVHLYR; The peptide of SEQ ID NO231 in which the residue at position 8 was replaced by Ala.)
severity and incidence of EAE induced with the native MOG 37-52 [1]: marked decrease | TCR signaling in the T-cell clones (TCR): induces partial TCR signaling | response ex vivo to MOG 37-52 by lymph node cells isolated from treated mice (lymph node cells): markedly reduced response | encephalitogenicity of the APL / of the T-cell responses it elicits [3]: non-encephalitogenicity | cytokine profile of APL-specific T-cell lines [4]: elicits Th2 T-cells

PLP139-151: major encephalitogenic peptide of PLP (CHCLGKWLGHPDK; UniProt P60202 139-151, looked up, fragment)
chronic EAE induced with whole PLP: acute phase and relapses [5]: abrogated the primary acute phase, but not subsequent relapses | EAE induced by Y-MSPb-reactive line T-cells: disease incidence or severity [2]: no significant effect

MBPAc1-11: immunodominant encephalitogenic epitope within MBP (Ac-MGNHSGKRELS; UniProt P04370 1-11, looked up, fragment)
MBP-induced EAE [6]: suppresses | MOG-induced EAE [6]: no effect | clinical severity of EAE induced with a combination of MBP and MOG ([6]; tolerogenic administration): marginal therapeutic effect
